Laboratory results: patent US7109380B2, “Cyclopentenedione antifungal compounds and methods for their use” (The University of Mississippi, priority 2004, dated 2006)

How the values were obtained:
Test in all cases: 96-well microtiter fungal growth assay;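 on Mean percent fungal growth inhibition of Botrytis cinerea: percent relative to untreated positive growth controls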;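 on Mean percent fungal growth inhibition of Colletotrichum acutatum: percent relative to untreated positive growth controls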;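 on Mean percent fungal growth inhibition of Colletotrichum fragariae: percent relative to untreated positive growth controls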;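 on Mean percent fungal growth inhibition of Colletotrichum gloeosporoides: percent relative to untreated positive growth controls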;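 on Mean percent fungal growth inhibition of Fusarium oxysporum: percent relative to untreated positive growth controls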;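 on Mean percent fungal growth inhibition of Phomopsis viticola: percent relative to untreated positive growth controls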
Type in all cases: cell-based
Phomopsis obscurans = tested on: Phomopsis obscurans
Text: (§1) Pathogen collection. Isolates of Colletotrichum acutatum Simmonds, Colletotrichum fragariae Brooks, and Colletotrichum gloeosporioides (Penz.) Penz. & Sacc. in Penz. were obtained from B. J. Smith, USDA, ARS, Small Fruit Research Station, Poplarville, Mass. Colletotrichum fragariae (isolate CF63), C. acutatum (isolate CAGoff), and C. gloeosporioides (isolate CG162) were used for all pathogen and bioautography studies. Isolate CF63 is one of the most virulent isolates at infecting strawberry plants and inducing both crown and fruit rot (Smith and Black, 1990). CF63, CAGoff, and CG162 were used as standard test isolates because of our extensive knowledge of these isolates and their known fungicide sensitivity profiles in both bioautography and microtiter formats. The three Colletotrichum species were isolated from strawberry (Fragaria xananassa Duchesne). Botrytis cinerea Pers.:Fr, was isolated from commercial grape (Vitis vinifera L.) and Fusarium oxysporum Schlechtend:Fr from orchid (Cynoches sp.) by David E. Wedge, USDA ARS Natural Products Utilization Research Unit. Phomopsis viticola (Sacc.) and P. obscurans (Ellis & Everh.) Sutton were from Mike A. Ellis, Ohio State University, Wooster, Ohio. Fungi were grown on potato-dextrose agar (PDA, Difco, Detroit Mich.) in 9 cm petri dishes and incubated in a growth chamber at 24±2° C. and under cool-white fluorescent lights ([…]·m^−2·sec^−1 light) with 12-h photoperiod.
(§2) Inoculum preparation. Conidia were harvested from 7–10 day-old cultures by flooding plates with 5 mL of sterile distilled water and dislodging conidia by softly brushing the colonies with an L-shaped glass rod. Conidial suspensions were filtered through sterile miracloth (Calbiochem-Novabiochem Corp., La Jolla Calif.) to remove mycelia. Conidia concentrations were determined photometrically, from a standard curve based on the absorbance at 625 nm and suspensions were then adjusted with sterile distilled water to a concentration of 1.0×10^6 conidia/mL.
(§3) Microtiter assay. A standardized 96-well microtiter plate assay developed for discovery of natural product fungicidal agents. A 96-well microtiter assay was used to determine sensitivity of B. cinerea, C. acutatum, C. fragariae, C. gloeosporioides, F. oxysporum, Phomopsis viticola, and P. obscurans to the various antifungal agents in comparison with known fungicidal standards. Vinclozolin, captan, and thiabendazole, which represent three different modes of action, were used as standards in this experiment. Each fungus was challenged in a dose-response format using test compounds where the final treatment concentrations were 0.3, 3.0 and 30.0 μM. Microtiter plates (Nunc MicroWell, untreated; Roskilde, Denmark) were covered with a plastic lid and incubated in a growth chamber at 24±1 C and 12 h photoperiod under 60±5 μmol light. Growth was then evaluated by measuring absorbance of each well at 620 nm using a microplate photometer (Packard Spectra Count, Packard Instrument Co., Downers Grove, Ill.).
(§4) Microbioassay Experimental Design. Chemical sensitivity of each fungus 96-well microtiter assay is used to determine sensitivity of B. cinerea, C. acutatum, C. fragariae, C. gloeosporioides, F. oxysporum, Phomopsis viticola, and P. obscurans. Each chemical is evaluated in duplicate at each dose (0.3, 3.0 and 30.0 μM) and repeated twice in time. Sixteen wells containing broth and inoculum serves as positive controls, eight wells containing solvent at the appropriate concentration and broth without inoculum are used as negative controls. […] Treatments are arranged as a split-plot design replicated twice in time. Whole-plots were fungal isolates and sub-plots are chemicals. Each dose level and response time is analyzed separately. The SAS system's analysis of variance procedure (Statistical Analysis System, Cary, N.C.) is used to identify significant factors and Fisher's protected LSD is used to separate means.

Phomopsis viticola = tested on: Phomopsis viticola;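 further: percent relative to untreated positive growth controls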
Text: as §1, §2, §3, §4

Colletotrichum acutatum = tested on: Colletotrichum acutatum;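 further: percent relative to untreated positive growth controls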
Text: as §1, §2, §3
as §4, with “controls. Mean absorbance values and standard errors is used to evaluate fungal growth at 48 hrs and 72 hrs except for P. obscurans and P. viticola the data are recorded at 120 hrs.” for “controls.”, “The SAS system's analysis of variance procedure (Statistical Analysis System, Cary, N.C.) is used to identify significant factors and Fisher's protected LSD is used to separate means.” left out

Fusarium oxysporum = tested on: Fusarium oxysporum;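 further: percent relative to untreated positive growth controls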
Text: as §1, §2, §3
as §4, with “controls. Mean absorbance values and standard errors is used to evaluate fungal growth at 48 hrs and 72 hrs except for P. obscurans and P. viticola the data are recorded at 120 hrs.” for “controls.”, “The SAS system's analysis of variance procedure (Statistical Analysis System, Cary, N.C.) is used to identify significant factors and Fisher's protected LSD is used to separate means.” left out

Colletotrichum fragariae = tested on: Colletotrichum fragariae;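 further: percent relative to untreated positive growth controls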
Text: as §1, §2, §3
as §4, with “controls. Mean absorbance values and standard errors is used to evaluate fungal growth at 48 hrs and 72 hrs except for P. obscurans and P. viticola the data are recorded at 120 hrs.” for “controls.”, “The SAS system's analysis of variance procedure (Statistical Analysis System, Cary, N.C.) is used to identify significant factors and Fisher's protected LSD is used to separate means.” left out

Botrytis cinerea = tested on: Botrytis cinerea;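 further: percent relative to untreated positive growth controls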
Text: as §1, §2, §3
as §4, with “controls. Mean absorbance values and standard errors is used to evaluate fungal growth at 48 hrs and 72 hrs except for P. obscurans and P. viticola the data are recorded at 120 hrs.” for “controls.”, “The SAS system's analysis of variance procedure (Statistical Analysis System, Cary, N.C.) is used to identify significant factors and Fisher's protected LSD is used to separate means.” left out

[1] = tested on: Colletotrichum gloeosporioides;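 further: percent relative to untreated positive growth controls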
Text: as §1, §2, §3
as §4, with “controls. Mean absorbance values and standard errors is used to evaluate fungal growth at 48 hrs and 72 hrs except for P. obscurans and P. viticola the data are recorded at 120 hrs.” for “controls.”, “The SAS system's analysis of variance procedure (Statistical Analysis System, Cary, N.C.) is used to identify significant factors and Fisher's protected LSD is used to separate means.” left out

SMILES: CO/C=C(/C(=O)OC)c1ccccc1Oc1cc(Oc2ccccc2C#N)ncn1 [Azoxystrobin]
- Percent change in fungal growth vs control (negative = inhibition) (Phomopsis obscurans; 0.3 μm, 120 hrs): −73.2 ± 6.7%
- Percent change in fungal growth vs control (negative = inhibition) (Phomopsis obscurans; 0.3 μm, 144 hrs): −70.2 ± 7.0%
- Percent change in fungal growth vs control (negative = inhibition) (Phomopsis obscurans; 3.0 μm, 120 hrs): −90.9 ± 6.5%
- Percent change in fungal growth vs control (negative = inhibition) (Phomopsis obscurans; 3.0 μm, 144 hrs): −87.5 ± 5.3%
- Percent change in fungal growth vs control (negative = inhibition) (Phomopsis obscurans; 30 μm, 120 hrs): −99.3 ± 0.5%
- Percent change in fungal growth vs control (negative = inhibition) (Phomopsis obscurans; 30 μm, 144 hrs): −98.2 ± 0.6%
- Mean percent fungal growth inhibition of Phomopsis viticola (Phomopsis viticola; 0.3 μm, 120 hrs): −29.5 ± 45.0%
- Mean percent fungal growth inhibition of Phomopsis viticola (Phomopsis viticola; 0.3 μm, 144 hrs): −73.4 ± 16.0%
- Mean percent fungal growth inhibition of Phomopsis viticola (Phomopsis viticola; 3.0 μm, 120 hrs): −124.5 ± 33.0%
- Mean percent fungal growth inhibition of Phomopsis viticola (Phomopsis viticola; 30 μm, 120 hrs): −154.1 ± 39.4%
- Mean percent fungal growth inhibition of Phomopsis viticola (Phomopsis viticola; 30 μm, 144 hrs): −97.9 ± 1.3%
- Mean percent fungal growth inhibition of Colletotrichum acutatum (Colletotrichum acutatum; 0.3 μm, 48 hrs): −75.1 ± 1.8%
- Mean percent fungal growth inhibition of Colletotrichum acutatum (Colletotrichum acutatum; 0.3 μm, 72 hrs): −46.0 ± 1.4%
- Mean percent fungal growth inhibition of Colletotrichum acutatum (Colletotrichum acutatum; 3.0 μm, 48 hrs): −89.2 ± 1.8%
- Mean percent fungal growth inhibition of Colletotrichum acutatum (Colletotrichum acutatum; 3.0 μm, 72 hrs): −77.4 ± 1.6%
- Mean percent fungal growth inhibition of Colletotrichum acutatum (Colletotrichum acutatum; 30 μm, 48 hrs): −94.3 ± 1.1%
- Mean percent fungal growth inhibition of Colletotrichum acutatum (Colletotrichum acutatum; 30 μm, 72 hrs): −84.1 ± 0.8%
- Mean percent fungal growth inhibition of Fusarium oxysporum (Fusarium oxysporum; 0.3 μm, 48 hrs): −13.0 ± 6.0%
- Mean percent fungal growth inhibition of Fusarium oxysporum (Fusarium oxysporum; 0.3 μm, 72 hrs): 3.8 ± 3.6%
- Mean percent fungal growth inhibition of Fusarium oxysporum (Fusarium oxysporum; 3.0 μm, 48 hrs): −66.4 ± 1.4%
- Mean percent fungal growth inhibition of Fusarium oxysporum (Fusarium oxysporum; 3.0 μm, 72 hrs): −40.1 ± 3.5%
- Mean percent fungal growth inhibition of Fusarium oxysporum (Fusarium oxysporum; 30 μm, 48 hrs): −87.3 ± 0.6%
- Mean percent fungal growth inhibition of Fusarium oxysporum (Fusarium oxysporum; 30 μm, 72 hrs): −64.6 ± 0.8%
- Mean percent fungal growth inhibition of Colletotrichum fragariae (Colletotrichum fragariae; 0.3 μm, 48 hrs): −68.8 ± 4.0%
- Mean percent fungal growth inhibition of Colletotrichum fragariae (Colletotrichum fragariae; 0.3 μm, 72 hrs): −33.5 ± 17.4%
- Mean percent fungal growth inhibition of Colletotrichum fragariae (Colletotrichum fragariae; 3.0 μm, 48 hrs): −78.9 ± 4.4%
- Mean percent fungal growth inhibition of Colletotrichum fragariae (Colletotrichum fragariae; 3.0 μm, 72 hrs): −80.6 ± 4.8%
- Mean percent fungal growth inhibition of Colletotrichum fragariae (Colletotrichum fragariae; 30 μm, 48 hrs): −82.0 ± 4.9%
- Mean percent fungal growth inhibition of Colletotrichum fragariae (Colletotrichum fragariae; 30 μm, 72 hrs): −86.4 ± 4.5%
- Mean percent fungal growth inhibition of Botrytis cinerea (Botrytis cinerea; 0.3 μm, 48 hrs): −30.4 ± 40.8%
- Mean percent fungal growth inhibition of Botrytis cinerea (Botrytis cinerea; 0.3 μm, 72 hrs): −67.3 ± 7.6%
- Mean percent fungal growth inhibition of Botrytis cinerea (Botrytis cinerea; 3.0 μm, 48 hrs): −45.8 ± 32.5%
- Mean percent fungal growth inhibition of Botrytis cinerea (Botrytis cinerea; 3.0 μm, 72 hrs): −79.8 ± 3.6%
- Mean percent fungal growth inhibition of Botrytis cinerea (Botrytis cinerea; 30 μm, 48 hrs): −58.3 ± 26.5%
- Mean percent fungal growth inhibition of Botrytis cinerea (Botrytis cinerea; 30 μm, 72 hrs): −89.1 ± 2.1%
- Mean percent fungal growth inhibition of Colletotrichum gloeosporoides ([1]; 0.3 μm, 48 hrs): −91.2 ± 2.1%
- Mean percent fungal growth inhibition of Colletotrichum gloeosporoides ([1]; 0.3 μm, 72 hrs): −71.0 ± 1.4%
- Mean percent fungal growth inhibition of Colletotrichum gloeosporoides ([1]; 3.0 μm, 48 hrs): −96.3 ± 0.9%
- Mean percent fungal growth inhibition of Colletotrichum gloeosporoides ([1]; 3.0 μm, 72 hrs): −87.6 ± 2.0%
- Mean percent fungal growth inhibition of Colletotrichum gloeosporoides ([1]; 30 μm, 48 hrs): −97.7 ± 0.5%
- Mean percent fungal growth inhibition of Colletotrichum gloeosporoides ([1]; 30 μm, 72 hrs): −89.8 ± 1.1%
